Test systems include U-251; NCI-H226; MOLT-4; SF-295; IGROV-1; DU-145; NCI-H460; HL-60; HOP-62; UACC-257; SK-MEL-28; SR; HCC 2998; ACHN; SF-268; SK-MEL-5; SN12C; NCI/ADR-RES; SK-MEL-2; HCT-116.
What all share (test): DTP human tumour cell line panel, 48 h

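96-well plates; 48 h exposure; 5 concentrations. Endpoints by linear interpolation between flanking doses. Not reached: highest tested concentration assigned. GI50 is the concentration that inhibits growth by half.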 Calls of active or inactive are those of the source. No stated cut-off is given here; in the data, active = GI50 up to about 1.1 µM and inactive = higher. Some results are limits rather than exact numbers.

For orientation: GI50 means the concentration giving 50% growth inhibition. Regarding `O=C(O)c1cc(-c2ccc3c(O)c(O)ccc3c2)ccc1O`, the GI50 with U-251 was 15 µM (inactive); in the assay on NCI-H226 it was 28 µM (inactive); with MOLT-4, 12.6 µM (inactive); with SF-295 it was 16.1 µM (inactive); in the assay with IGROV-1, 40.5 µM (inactive); in the assay with DU-145, > 75 µM (inactive). The GI50 in the assay on NCI-H460 is > 7.5 µM (inactive); in the assay on HL-60 it was 16.8 µM (inactive); with HOP-62, > 75 µM (inactive); in the assay on UACC-257, 68.4 µM (inactive); with SK-MEL-28, > 75 µM (inactive); with SR it was 18.1 µM (inactive). Moreover, the GI50 in the assay on HCC 2998 was > 75 µM (inactive); in the assay with ACHN, > 75 µM (inactive); with SF-268 it was > 75 µM (inactive); in the assay on SK-MEL-5 it was 34.2 µM (inactive); with SN12C, 14.8 µM (inactive); in the assay with NCI/ADR-RES, 33.6 µM (inactive). The GI50 is > 75 µM (inactive) in the assay on SK-MEL-2 and 15.8 µM (inactive) in the assay with HCT-116.

For the molecule `CC(C)(C)OC(=O)N1CC(COS(C)(=O)=O)c2ccc(O)cc21` (stereo not given), the GI50 in the assay on U-251 is 2.51 µM (inactive); in the assay with NCI-H226, 1.92 µM (inactive); in the assay with MOLT-4, 0.443 µM (active); in the assay on SF-295, 2.91 µM (inactive); with IGROV-1 it was 2.84 µM (inactive); with DU-145 it was 0.507 µM (active). Also, the GI50 was 2.14 µM (inactive) in the assay on NCI-H460; 1.24 µM (inactive) in the assay with HL-60; 3.3 µM (inactive) with HOP-62; 2.29 µM (inactive) with UACC-257; 2.14 µM (inactive) in the assay on SK-MEL-28; 0.703 µM (active) in the assay with SR. For the same molecule, the GI50 in the assay with HCC 2998 was 0.133 µM (active); with ACHN, 0.684 µM (active); in the assay with SF-268, 1.72 µM (inactive); in the assay on SK-MEL-5 it was 1.51 µM (inactive); in the assay with SN12C, 2.25 µM (inactive); in the assay on NCI/ADR-RES, 1.74 µM (inactive). The results for the GI50 with SK-MEL-2 and in the assay on HCT-116 were 1.51 µM (inactive) and 1.95 µM (inactive), respectively.

In the case of `Cn1c(=O)oc2cc(C(=O)CSC(=S)N3CCCCCC3)ccc21`, the GI50 was 72.8 µM (inactive) with U-251; > 100 µM (inactive) with NCI-H226; 41.3 µM (inactive) in the assay with MOLT-4; 87.9 µM (inactive) in the assay with SF-295; > 100 µM (inactive) in the assay with IGROV-1; > 100 µM (inactive) with DU-145. Also, the GI50 was 52.7 µM (inactive) in the assay on NCI-H460; 51.8 µM (inactive) in the assay on HL-60; 61.1 µM (inactive) in the assay on HOP-62; > 100 µM (inactive) with UACC-257; > 100 µM (inactive) with SK-MEL-28; 56.2 µM (inactive) in the assay on SR. The GI50 was 78.7 µM (inactive) with HCC 2998; > 100 µM (inactive) in the assay with ACHN; > 100 µM (inactive) in the assay with SF-268; > 100 µM (inactive) in the assay with SK-MEL-5; > 100 µM (inactive) in the assay on SN12C; 54.2 µM (inactive) with NCI/ADR-RES. Further, the figures for the GI50 in the assay on SK-MEL-2 and in the assay on HCT-116 were > 100 µM (inactive) and 73.6 µM (inactive), respectively.

On to `COc1c(Br)cc2c(c1OC)C(Br)CCC(Br)(Br)C2=O` (stereo not given), for which the GI50 with U-251 was 2.18 µM (inactive); in the assay on NCI-H226, 2.21 µM (inactive); with MOLT-4, < 0.0183 µM (active); in the assay with SF-295 it was 2.52 µM (inactive); in the assay with IGROV-1, 0.482 µM (active); in the assay with DU-145 it was 3.01 µM (inactive). The GI50 with NCI-H460 was 2.75 µM (inactive); in the assay with HL-60, 0.787 µM (active); in the assay on HOP-62 it was 2.19 µM (inactive); in the assay with UACC-257 it was 3.17 µM (inactive); in the assay with SK-MEL-28 it was 2.5 µM (inactive); with SR, 0.0368 µM (active). In addition, the GI50 in the assay with HCC 2998 is 5.08 µM (inactive); in the assay on ACHN, 2.29 µM (inactive); in the assay on SF-268 it was 0.986 µM (active); with SK-MEL-5 it was 0.653 µM (active); in the assay with SN12C, 0.382 µM (active); with NCI/ADR-RES it was 0.587 µM (active). Moreover, the GI50 in the assay on SK-MEL-2 was 1.1 µM (active); in the assay with HCT-116, 0.273 µM (active).

Regarding `CN1C(c2ccccc2)CC(=NOCc2ccccc2)CC1c1ccccc1` (stereo not given), the GI50 in the assay on U-251 was 34.1 µM (inactive); in the assay with NCI-H226 it was 52.8 µM (inactive); in the assay on MOLT-4, 23.7 µM (inactive); in the assay with SF-295, 44.2 µM (inactive); in the assay with IGROV-1 it was 38.1 µM (inactive); with DU-145 it was 47.6 µM (inactive). Also, the GI50 with NCI-H460 was 19.1 µM (inactive); in the assay with HL-60, 19 µM (inactive); in the assay on HOP-62, 49.5 µM (inactive); in the assay with UACC-257, 64.7 µM (inactive); in the assay with SK-MEL-28, 40.8 µM (inactive); with SR, 13.6 µM (inactive). The GI50 was > 71.9 µM (inactive) in the assay on HCC 2998; 46.1 µM (inactive) in the assay with ACHN; 24.3 µM (inactive) in the assay on SF-268; 33.7 µM (inactive) in the assay with SK-MEL-5; 44.6 µM (inactive) with SN12C; 19.3 µM (inactive) with NCI/ADR-RES. For the same molecule, the GI50 in the assay on SK-MEL-2 was 57.4 µM (inactive); in the assay on HCT-116, 18.5 µM (inactive).

For the molecule `C[C@@]1(CCCCCCCCCCc2ccccc2)C[C@@]2(C)OC(=O)C[C@H]2OO1`, the GI50 with U-251 is 1.55 µM (inactive); in the assay with NCI-H226, 3.1 µM (inactive); with MOLT-4, 1.69 µM (inactive); in the assay with SF-295 it was 1.82 µM (inactive); in the assay on IGROV-1, 1.75 µM (inactive); in the assay on DU-145, 2.77 µM (inactive). The GI50 was 1.96 µM (inactive) in the assay with NCI-H460; 0.399 µM (active) with HL-60; 1.57 µM (inactive) with HOP-62; 2.12 µM (inactive) in the assay with UACC-257; 2.07 µM (inactive) with SK-MEL-28; 1.88 µM (inactive) with SR. For the same molecule, the GI50 in the assay with HCC 2998 is 1.66 µM (inactive); with ACHN it was 2.2 µM (inactive); in the assay on SF-268, 1.8 µM (inactive); in the assay with SK-MEL-5 it was 1.44 µM (inactive); in the assay on SN12C, 1.81 µM (inactive); in the assay with NCI/ADR-RES, 1.68 µM (inactive). For the same molecule, the values for the GI50 with SK-MEL-2 and with HCT-116 were 20.9 µM (inactive) and 1.45 µM (inactive), respectively.

As for `O=C(c1ccccc1)n1c2ccc(Br)cc2c2nc3ccccc3nc21`, the GI50 in the assay on U-251 is 65 µM (inactive); with NCI-H226 it was > 100 µM (inactive); in the assay on MOLT-4 it was 46.9 µM (inactive); in the assay with SF-295, > 100 µM (inactive); in the assay with IGROV-1 it was 67.6 µM (inactive); with DU-145, > 100 µM (inactive). Besides, the GI50 with NCI-H460 was 71 µM (inactive); with HL-60, > 100 µM (inactive); in the assay on HOP-62 it was 15.9 µM (inactive); in the assay on UACC-257, > 100 µM (inactive); in the assay with SK-MEL-28, > 100 µM (inactive); with SR, > 100 µM (inactive). Besides, the GI50 with HCC 2998 was > 100 µM (inactive); with ACHN it was 57.1 µM (inactive); in the assay on SF-268 it was > 100 µM (inactive); in the assay on SK-MEL-5, > 100 µM (inactive); with SN12C, > 100 µM (inactive); in the assay with NCI/ADR-RES, > 100 µM (inactive). Besides, the GI50 was 95.3 µM (inactive) in the assay with SK-MEL-2 and > 100 µM (inactive) with HCT-116.

As to `CCn1c2c(c3c(C(=O)OC)c(O)ccc31)C(=O)c1ccccc1C2=O`, the GI50 in the assay on U-251 is 14.7 µM (inactive); with NCI-H226 it was 9.18 µM (inactive); in the assay on MOLT-4, 12.1 µM (inactive); in the assay with SF-295 it was 17.3 µM (inactive); with IGROV-1 it was 3.61 µM (inactive); with DU-145, 11.1 µM (inactive). For the same molecule, the GI50 in the assay with NCI-H460 is 7.19 µM (inactive); with HL-60, 22.1 µM (inactive); in the assay on HOP-62, 15.7 µM (inactive); in the assay on UACC-257, 40.6 µM (inactive); in the assay on SK-MEL-28, 16.9 µM (inactive); in the assay on SR, 11.3 µM (inactive). The GI50 with HCC 2998 was 19.4 µM (inactive); with ACHN, 4.69 µM (inactive); in the assay on SF-268, 15.3 µM (inactive); in the assay on SK-MEL-5, 11.7 µM (inactive); with SN12C, 11.9 µM (inactive); in the assay with NCI/ADR-RES, 16.6 µM (inactive). In addition, the GI50 in the assay with SK-MEL-2 was 11.5 µM (inactive); in the assay on HCT-116, 13.1 µM (inactive).

On to `Cc1noc(C)c1-n1nc2ccc3nonc3c2n1`, for which the GI50 in the assay on U-251 was 30.1 µM (inactive); with NCI-H226, > 81.8 µM (inactive); in the assay with MOLT-4, > 100 µM (inactive); in the assay with SF-295, 31.7 µM (inactive); in the assay on IGROV-1, 81.7 µM (inactive); in the assay on DU-145 it was > 100 µM (inactive). The GI50 was > 100 µM (inactive) in the assay on NCI-H460; > 100 µM (inactive) in the assay on HL-60; 22.5 µM (inactive) in the assay with HOP-62; > 100 µM (inactive) with UACC-257; > 100 µM (inactive) in the assay with SK-MEL-28; > 100 µM (inactive) in the assay with SR. Moreover, the GI50 with HCC 2998 is > 100 µM (inactive); with ACHN, > 88.5 µM (inactive); with SF-268 it was 41 µM (inactive); in the assay on SK-MEL-5 it was > 100 µM (inactive); with SN12C, > 100 µM (inactive); in the assay on NCI/ADR-RES, > 100 µM (inactive). Besides, the GI50 in the assay with SK-MEL-2 was 48.9 µM (inactive); in the assay with HCT-116, 56.6 µM (inactive).

Consider `CCOC(=O)C12OC(CCC1=O)C(C(=O)OC)=C2C(=O)OC` (stereo not given), for which the GI50 in the assay with U-251, in the assay with NCI-H226, with MOLT-4, in the assay with SF-295, in the assay on IGROV-1 and in the assay with DU-145 was > 10 µM (inactive) each time. Also, the GI50 in the assay with NCI-H460, with HL-60, with HOP-62, in the assay with UACC-257, with SK-MEL-28 and with SR was > 10 µM (inactive) each time. Further, the GI50 with HCC 2998, with ACHN, in the assay on SF-268, with SK-MEL-5, with SN12C and in the assay on NCI/ADR-RES was > 10 µM (inactive) each time. Moreover, the GI50 with SK-MEL-2 and with HCT-116 was > 10 µM (inactive) each time.
